The values below come from patent US11066369B2, “N-(pyridin-2-yl)pyridine-sulfonamide derivatives and their use in the treatment of disease” (Novartis AG, priority 2016, dated 2021).

Where a name gives a salt, the structure may show the parent alone. Read-outs that look alike come from different tables or passages of the source.

One assay concerns the target T1, delF508-CFTR (Homo sapiens, UniProt P13569, DEL508-508).
T1 construct: functional activity of the CFTR channel (Chloride ion transport) in patient derived primary human bronchial epithelial cells; host or cells: patient-derived primary human bronchial epithelial cells (delF508-CFTR)
The assay can be described thus: Measurement of delF508-CFTR functional activity in primary human bronchial epithelial cells (HBECs) using Multi-Transepithelial Clamp Circuit (MTECC-24) assay. Type of assay: cell-based. As to conditions: primary CF HBECs; for MTECC24 CFHBEC- Amax %: test compound added 24h before assay plus potentiator, relative to reference combination (2 μM corrector + 0.5 μM potentiator); for EC50: test compound added 24h before assay, in the presence of potentiator, mean of at least two replicates, read-out: MTECC24 CFHBEC- EC50. The text has this:
[formula] Measurement of delF508-CFTR Functional Activity in Primary Human Bronchial Epithelial Cells (HBECs) Using Multi-Transepithelial Clamp Circuit (MTECC-24) Assay
This assay measures the functional activity of the CFTR channel (Chloride ion transport) in patient derived primary human bronchial epithelial cells with forskolin activation and in the presence of the CFTR corrector/potentiator combo.
Primary human delF508-CFTR bronchial epithelial cells were purchased from Asterand and cultured according to previously established methods (Fulcher et al. (2005) Methods Mol Med 107: 183-206). Briefly, vendor supplied cells were rapidly defrosted and added to a T175 flask in 50 mL growth media (Lonza BEBM media with Lonza BEGM singlequots). Media was replaced after 24h and then cells were fed every other day until cells were 80-90% confluent, at which point cells were cryopreserved. These P1 vials were thawed at 37° C. as needed and added to T175 flasks in 50 mL growth media at 5×10^5 cells/flask. Media was replaced after 24h, and then cells were fed every other day until 80-90% confluent. Cells were lifted with 5 mL accutase at 37° C. for 5 minutes, centrifuged at 1000 rpms for 5 min (300 g), and resuspended in differentiation media (50% BEBM in DMEM, BEGM singlequots, all trans retinoic acid (5×10^−8M)). Cells were then counted and cell suspension was added to collagen coated inserts at 3×10^4 cells/insert in 0.15 mL with 0.5 mL differentiation media on the basolateral side.
Apical and basolateral media were replaced on alternate days, and following day 7 (or when confluent plus 2 days), air liquid interface was established for approximately two weeks by removal of apical media. One day prior to use on the MTECC24 system (EP-Devices, EP Design, Belgium), 0.15 mL of warmed (37° C.) PBS was added to the apical surface of the cultures and returned to humidifier (37° C., 5% CO2 incubator) for 30 min before aspirating the apical surface to remove any mucus.
Compound treatments were then prepared. Compound dilutions, typically a 10 point concentration response with 1 in 3 dilution steps, were made in 100% DMSO before dilution 1 in 1000 into differentiation medium with a final DMSO concentration of 0.1% or 0.2% for the study. Compound containing medium was then transferred into the wells of a 24 well plate at 0.5 mL per well and warmed for 30 min in a 37° C. incubator prior to transferring washed inserts into the compound containing plates. Cells were incubated in compound containing medium (basolateral only) for 24h prior to measurement in the MTECC24 system.
Following 24 hr treatment, compound dilutions were prepared again, diluted 1 in 1000 into 37° C. assay medium (F-12 Coon's modified, 20 mM HEPES pH7.4 with TRIS Base, No FCS or bicarbonate). Cells which were treated for 24h with test compound were then transferred into plates containing 0.75 mL compound treatment in assay medium (basolateral) and 0.25 mL of the compound containing assay medium was added to the apical surface. The plates were then transferred to the heated plate compartments of the MTECC24 system for 45 min prior to measurements (this can also be done in a non-CO2 37° C. humidified incubator). Basolateral temperature should not exceed 36.5° C. and apical temperature should be approximately 35.5° C.
Modulators were added sequentially as follows while the MTECC24 instrument recorded the equivalent short circuit current (Ieq):
Prior to dilution into F-12 medium the stocks are as follows:
Amiloride stock is 10 mM in H2O
Forskolin Stock is 10 mM in 100% DMSO
(S)-3-amino-6-methoxy-N-(3,3,3-trifluoro-2-hydroxy-2-methylpropyl)-5-(trifluoromethyl)picolinamide is 0.5 mM stock in 100% DMSO
INH-172 (4-[[4-Oxo-2-thioxo-3-[3-trifluoromethyl)phenyl]-5-thiazolidinylidene]methyl]benzoic acid) stock is 30 mM in 100% DMSO
The data was normalized using the median signal from wells treated with 0.1% DMSO as a baseline. […]

Assay [1] has as its target T2, horseradish peroxidase (HRP) tagged delF508-CFTR (Homo sapiens, UniProt P13569, DEL508-508).
T2 construct: expressed in transfected cells
Nature of the assay: Measurement of delF508-CFTR-HRP surface expression in CFBE41o- cells.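 On DelF508-CFTR-HRP Amax %: percent efficacy relative to reference corrector lumacaftor.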 It is filed as cell-based. The conditions noted are these: for Emax: read-out: DelF508-CFTR-HRP Amax %. The gist of the method: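 Surface-trafficked delF508-CFTR detected via extracellular HRP tag, read as luminescence from a membrane-impermeant substrate in CFBE41o- cells. Cells pre-induced 48h with 500 ng/mL doxycycline, then exposed 24h at 37° C to a 10-point, 3-fold dilution series from 10 μM (DMSO ≤0.5%). Triplicate dose-responses fitted logistically for EC50 after per-plate normalization; fold change versus reference compound.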

Where [2] appears, read: delF508-CFTR-HRP surface expression, CFBE41o- cells.
Setting [3] is: delF508-CFTR-HRP surface expression, CFBE41o- cells, read-out: DelF508-CFTR-HRP EC50.
[4] abbreviates: CFBE41o- cells, mean of at least two replicates, read-out: DelF508-CFTR-HRP EC50.
The mark [5] stands for this setting: CFBE41o- cells, surface expression Amax.

T1 sequence (P13569 with tags, fused parts or gaps DEL508-508): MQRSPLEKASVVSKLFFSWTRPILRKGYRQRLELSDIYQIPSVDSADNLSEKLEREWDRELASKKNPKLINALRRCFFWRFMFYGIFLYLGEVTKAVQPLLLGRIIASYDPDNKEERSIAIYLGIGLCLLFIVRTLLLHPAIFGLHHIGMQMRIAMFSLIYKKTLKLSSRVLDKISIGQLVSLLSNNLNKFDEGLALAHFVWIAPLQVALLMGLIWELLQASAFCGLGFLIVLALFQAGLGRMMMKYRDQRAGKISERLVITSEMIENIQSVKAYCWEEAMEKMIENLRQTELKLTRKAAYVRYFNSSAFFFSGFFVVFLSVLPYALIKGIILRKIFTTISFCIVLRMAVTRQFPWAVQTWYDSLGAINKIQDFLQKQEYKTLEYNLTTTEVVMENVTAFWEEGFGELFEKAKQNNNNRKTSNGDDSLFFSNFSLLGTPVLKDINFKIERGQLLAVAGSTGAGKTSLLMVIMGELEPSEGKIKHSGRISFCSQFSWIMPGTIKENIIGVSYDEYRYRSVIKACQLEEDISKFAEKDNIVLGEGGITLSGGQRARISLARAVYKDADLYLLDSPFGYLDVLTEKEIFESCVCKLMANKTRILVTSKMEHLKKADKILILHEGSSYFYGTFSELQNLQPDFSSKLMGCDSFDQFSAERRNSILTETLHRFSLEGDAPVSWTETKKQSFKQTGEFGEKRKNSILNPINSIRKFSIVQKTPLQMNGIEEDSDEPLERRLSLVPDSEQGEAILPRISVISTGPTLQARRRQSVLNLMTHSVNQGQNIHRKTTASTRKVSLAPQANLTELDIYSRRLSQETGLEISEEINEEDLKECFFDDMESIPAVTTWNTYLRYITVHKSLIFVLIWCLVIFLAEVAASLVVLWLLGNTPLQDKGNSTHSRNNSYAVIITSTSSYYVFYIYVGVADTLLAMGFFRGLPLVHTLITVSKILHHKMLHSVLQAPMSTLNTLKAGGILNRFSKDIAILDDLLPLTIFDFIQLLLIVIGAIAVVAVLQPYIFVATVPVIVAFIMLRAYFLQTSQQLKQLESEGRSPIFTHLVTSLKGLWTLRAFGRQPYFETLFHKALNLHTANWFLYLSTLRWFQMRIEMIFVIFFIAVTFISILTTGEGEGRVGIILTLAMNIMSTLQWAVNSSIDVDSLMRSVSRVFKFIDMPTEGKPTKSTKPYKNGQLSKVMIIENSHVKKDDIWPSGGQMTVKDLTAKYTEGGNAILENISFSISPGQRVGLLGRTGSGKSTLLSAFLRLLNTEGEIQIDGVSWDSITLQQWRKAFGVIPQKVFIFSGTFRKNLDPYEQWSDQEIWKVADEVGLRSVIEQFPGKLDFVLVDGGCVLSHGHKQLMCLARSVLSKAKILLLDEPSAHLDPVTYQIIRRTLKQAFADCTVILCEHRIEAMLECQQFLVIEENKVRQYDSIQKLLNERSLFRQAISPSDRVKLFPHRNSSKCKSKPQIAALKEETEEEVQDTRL
T2 sequence (P13569 with tags, fused parts or gaps DEL508-508): as above

As for `Cc1ccccc1-c1nc(NS(=O)(=O)c2cccc(OC3CC(C(=O)O)C3)n2)ccc1C(F)(F)F` (mixture of isomers) [Example 331, 3-((6-(N-(6-(o-tolyl)-5-(trifluoromethyl)pyridin-2-yl)sulfamoyl)pyridin-2-yl)oxy)cyclobutanecarboxylic Acid], the “MTECC24 CFHBEC- Amax %” value at delF508-CFTR was 67.4%. Besides, the EC50 at delF508-CFTR amounted to 64.9 nM; in assay [1] (setting [3]), 1520 nM. The Emax in assay [1] (setting [2]) came out at 218%.

With `CO[C@@H]1CNCC[C@H]1Nc1cccc(S(=O)(=O)Nc2ccc(C(F)(F)F)c(-c3ccccc3C)n2)n1` (racemic) [Example 116, 6-(((3R,4R)-3-methoxypiperidin-4-yl)amino)-N-(6-(o-tolyl)-5-(trifluoromethyl)pyridin-2-yl)pyridine-2-sulfonamide Hydrochloride], at delF508-CFTR, the “MTECC24 CFHBEC- Amax %” value turned out to be 60.8% and the half-maximal effective concentration (EC50) is 107 nM. Further, in assay [1] (setting [2]), the Emax amounted to 370%. In addition, the EC50 in assay [1] (setting [3]) worked out at 3160 nM.

Consider `Cc1ccccc1-c1nc(NS(=O)(=O)c2cccc(N[C@@H]3CCOC[C@@H]3O)n2)ccc1C(F)(F)F` (racemic) [Example 275, rac-6-{[(3RS,4RS)-3-hydroxyoxan-4-yl]amino}-N-[6-(2-methylphenyl)-5-(trifluoromethyl)pyridin-2-yl]pyridine-2-sulfonamide], for which the “MTECC24 CFHBEC- Amax %” value on delF508-CFTR is 77.9%. The 50% effective concentration (EC50) at delF508-CFTR amounted to 1.5 nM; in assay [1] (setting [3]), 1070 nM.

Consider `Cc1ccccc1-c1nc(NS(=O)(=O)c2cccc(N[C@@H]3COCC[C@@H]3O)n2)ccc1C(F)(F)F` (racemic) [Example 280, rac-6-{[(3RS,4SR)-4-hydroxyoxan-3-yl]amino}-N-[6-(2-methylphenyl)-5-(trifluoromethyl)pyridin-2-yl]pyridine-2-sulfonamide], for which the “MTECC24 CFHBEC- Amax %” value at delF508-CFTR came to 96.3%. Besides, the EC50 on delF508-CFTR is 2.5 nM; in assay [1] (setting [3]), 1960 nM. The Emax in assay [1] (setting [2]) was determined as 844%.

With `Cc1ccccc1-c1nc(NS(=O)(=O)c2cccc(N3CC[C@@H](N)[C@@H](F)C3)n2)ccc1C(F)(F)F` [Example 111, 6-((3S,4R)-4-amino-3-fluoropiperidin-1-yl)-N-(6-(o-tolyl)-5-(trifluoromethyl)pyridin-2-yl)pyridine-2-sulfonamide Hydrochloride], on delF508-CFTR, the “MTECC24 CFHBEC- Amax %” value is 59.5% and the 50% effective concentration (EC50) came to 31.8 nM.

As to `Cc1ccc(Cl)cc1-c1nc(NS(=O)(=O)c2cccc(N3CCC[C@@](C)(C(=O)O)C3)n2)ccc1C(F)(F)F` [Example 450, (R)-1-(6-(N-(6-(5-chloro-2-methylphenyl)-5-(trifluoromethyl)pyridin-2-yl)sulfamoyl)pyridin-2-yl)-3-methylpiperidine-3-carboxylic Acid], the concentration for a half-maximal effect (EC50) in assay [1] (setting [4]) turned out to be 1100 nM.

As for `Cc1ccc(Cl)cc1-c1nc(NS(=O)(=O)c2cccc(N3CCC(C)(C(=O)O)CC3)n2)ccc1C(F)(F)F` [Example 451, 1-(6-(N-(6-(5-chloro-2-methylphenyl)-5-(trifluoromethyl)pyridin-2-yl)sulfamoyl)pyridin-2-yl)-4-methylpiperidine-4-carboxylic Acid], in assay [1] (setting [4]), the concentration for a half-maximal effect (EC50) was 2680 nM. Moreover, the Emax in assay [1] (setting [5]) came to 847%.

Consider `CCC1(C(=O)O)CCCN(c2cccc(S(=O)(=O)Nc3ccc(Cl)c(-c4ccccc4C)n3)n2)C1` (stereo not shown) [Example 452, 1-(6-(N-(5-chloro-6-(o-tolyl)pyridin-2-yl)sulfamoyl)pyridin-2-yl)-3-ethylpiperidine-3-carboxylic Acid], for which the concentration for a half-maximal effect (EC50) in assay [1] (setting [4]) stood at 2360 nM. For the same compound, in assay [1] (setting [5]), the Emax amounted to 990%.

In the case of `CCC1(C(=O)O)CCCN(c2cccc(S(=O)(=O)Nc3ccc(Cl)c(-c4c(C)cccc4C)n3)n2)C1` (stereo not shown) [Example 453, 1-(6-(N-(5-chloro-6-(2,6-dimethylphenyl)pyridin-2-yl)sulfamoyl)pyridin-2-yl)-3-ethylpiperidine-3-carboxylic Acid], the half-maximal effective concentration (EC50) in assay [1] (setting [4]) is 1590 nM.

Turning to `CCC1(C(=O)O)CCCN(c2cccc(S(=O)(=O)Nc3ccc(C(F)(F)F)c(-c4ccccc4C)n3)n2)C1` (stereo not shown) [Example 454, 3-ethyl-1-(6-(N-(6-(o-tolyl)-5-(trifluoromethyl)pyridin-2-yl)sulfamoyl)pyridin-2-yl)piperidine-3-carboxylic Acid], the concentration giving a half-maximal response (EC50) in assay [1] (setting [4]) is 1700 nM.

For `COc1ccc(Cl)cc1-c1nc(NS(=O)(=O)c2cccc(N3CCC[C@@](C)(C(=O)O)C3)n2)ccc1C(F)(F)F` [Example 455, (R)-1-(6-(N-(6-(5-chloro-2-methoxyphenyl)-5-(trifluoromethyl)pyridin-2-yl)sulfamoyl)pyridin-2-yl)-3-methylpiperidine-3-carboxylic Acid], the half-maximal effective concentration (EC50) in assay [1] (setting [4]) is 1770 nM. The Emax in assay [1] (setting [5]) came out at 899%.

Consider `CCCC1(C(=O)O)CCCN(c2cccc(S(=O)(=O)Nc3ccc(Cl)c(-c4ccccc4C)n3)n2)C1` (stereo not shown) [Example 456, 1-(6-(N-(5-chloro-6-(o-tolyl)pyridin-2-yl)sulfamoyl)pyridin-2-yl)-3-propylpiperidine-3-carboxylic Acid], for which, in assay [1] (setting [4]), the concentration giving a half-maximal response (EC50) was determined as 1360 nM. Besides, the Emax in assay [1] (setting [5]) was 465%.

On to `CCCC1(C(=O)O)CCCN(c2cccc(S(=O)(=O)Nc3ccc(Cl)c(-c4c(C)cccc4C)n3)n2)C1` (stereo not shown) [Example 457, 1-(6-(N-(5-chloro-6-(2,6-dimethylphenyl)pyridin-2-yl)sulfamoyl)pyridin-2-yl)-3-propylpiperidine-3-carboxylic Acid], for which, in assay [1] (setting [4]), the EC50 was determined as 622 nM. The Emax in assay [1] (setting [5]) was 702%.

With `CCCC1(C(=O)O)CCCN(c2cccc(S(=O)(=O)Nc3ccc(C(F)(F)F)c(-c4ccccc4C)n3)n2)C1` (stereo not shown) [Example 458, 3-propyl-1-(6-(N-(6-(o-tolyl)-5-(trifluoromethyl)pyridin-2-yl)sulfamoyl)pyridin-2-yl)piperidine-3-carboxylic Acid], the EC50 in assay [1] (setting [4]) was found to be 1600 nM. The Emax in assay [1] (setting [5]) was determined as 639%.

With `Cc1ccccc1-c1nc(NS(=O)(=O)c2cccc(N3[C@@H]4CC[C@H]3[C@@H](C(=O)O)C4)n2)ccc1C(F)(F)F` [Example 462, (1S,2S,4R)-7-(6-(N-(6-(o-tolyl)-5-(trifluoromethyl)pyridin-2-yl)sulfamoyl)pyridin-2-yl)-7-azabicyclo[2.2.1]heptane-2-carboxylic Acid], it took 2930 nM to reach a half-maximal effect in assay [1] (EC50). Moreover, the Emax in assay [1] (setting [5]) was 108%.

As to `Cc1ccccc1-c1nc(NS(=O)(=O)c2cccc(N3C[C@H](C(=O)O)CC[C@@H]3C)n2)ccc1C(F)(F)F` [Example 464], the concentration for a half-maximal effect (EC50) in assay [1] (setting [4]) came to 2430 nM. For the same compound, the Emax in assay [1] (setting [5]) was determined as 816%.

Turning to `Cc1cccc(C)c1-c1nc(NS(=O)(=O)c2cccc(N3CCC[C@@](C)(C(=O)O)C3)n2)ccc1C(F)(F)F` [Example 465, (R)-1-(6-(N-(6-(2,6-dimethylphenyl)-5-(trifluoromethyl)pyridin-2-yl)sulfamoyl)pyridin-2-yl)-3-methylpiperidine-3-carboxylic Acid], the EC50 in assay [1] (setting [4]) is 1730 nM.
